Values of other authors in US20230390541A1, “Dermal Patch for Transdermal Modulation of Ghrelin Pathway” (Resarcion, LLC, priority 2019, published 2023).

Conditions: shortest structural analog among truncated ghrelin analogs

Substance: Ser^3(octanoyl)-ghrelin (1-5)
- activity relative to native ghrelin: activity similar to the native hormone
